Patent US20240336567A1, “PESTICIDAL AND HERBICIDAL COMPOUNDS AND METHODS OF USE THEREOF” (AG Plenus Ltd, priority 2021, published 2024)
Where two headings read alike, the source gives them in different places.

Legend:
[1] = in vitro thermal shift (binding of compound to the target); conditions: thermal shift caused by binding of the compound to the (unnamed) target
Arabidopsis thaliana [2] = assay: HTPS (high throughput on soil) - Dicot - Post-emergence; format: in vivo; conditions: N/A: not active; for Emax: read-out: HTPS - Dicot - Post Max effect; for HTPS - Dicot - Post ED50: from normalized green area
Method: (§1) Arabidopsis thaliana seeds were sown in 96 well plates filled with irrigated Sweet sand (10%>clay) that is washed from salts and minerals using tap water. 5-10 seeds were sown in the center of each well. 7-8 days post sowing, at 2 true leaves stage, thinning out was performed to ensure that compound application is done on a single plant per well. The plates were placed in a controlled greenhouse in a random order inside a bath which allows flooding irrigation with tap water supplemented with a fertilizer. Applied compounds were dissolved into a final solution of 50% acetone, 49.9% DDW, 0.1% tween-20. A 96 well plate was used as a stock plate for preparing application solutions for 8 repeats. Each row contained different concentrations per chemical. Maximal concentration for application was 1.5 Kg/Ha and dilution factor is 2.5. Chemical application was performed one day after thinning out in a chemical hood. 5 μL applied on first two true leaves in each well using 12 channel pipettes. Data collection: RGB (red, green, blue) data for green area per well was documented using camera. Data is collected at a few time points during the experiment: one day after thinning and before chemical application, two-, six- or nine-days post application. During the last two documentations, visual phenotyping was performed. Data analysis: Given RGB results and visual phenotype scores, a student t-test conducted to compare between treatment and control performance for continuous data (RGB) and Fisher exact test to analyze the non-continuous data (phenotypic scores). Dose-Response curves are generated for each treatment to infer ED50 and max. inhibition parameters, using treatment's log concentration range as the […] variable and normalized green area. Plate imaging performed at 11 and 18 DAA. RGB data for green area per well was documented and used to extract % inhibition. Dose-Response curves were built for each treatment to infer ED50, ED75 and ED90 parameters, using treatment's log concentration range as the independent variable and normalized green area as the dependent variable. Treatments were compared to controls performance given RGB results and using student's t-test (p-val≤0.05).

Arabidopsis thaliana [3] = assay: HTPS - Dicot - Pre-emergence; format: in vivo; conditions: N/A: not active; for Emax: read-out: HTPS - Dicot - Pre Max effect
Method: as §1, with “area. These experiments are conducted similarly except that either Arabidopsis thaliana or Eragrostis teff seeds were sowed (5-10 or 5-7, respectively), plant thinning out was not performed, compound dissolved into a final solution of 50% acetone, 49.9% DDW, compound application was done at 30 μL volume per well directly on sowed soil before plant emergence and data was collected 10 or 7 days after chemical application on dicot or monocot plants, respectively.” for “area.”

Eragrostis teff = assay: HTPS - Monocot - Pre-emergence; format: in vivo; conditions: N/A: not active; for Emax: read-out: HTPS - Monocot - Pre Max effect
Method: as §1, with “area. These experiments are conducted similarly except that either Arabidopsis thaliana or Eragrostis teff seeds were sowed (5-10 or 5-7, respectively), plant thinning out was not performed, compound dissolved into a final solution of 50% acetone, 49.9% DDW, compound application was done at 30 μL volume per well directly on sowed soil before plant emergence and data was collected 10 or 7 days after chemical application on dicot or monocot plants, respectively.” for “area.”

SETVI = assay: In-planta LTP pre-emergence, visual phenotype; format: in vivo, Setaria viridis; conditions: monocot; for pest or weed control at 2000 g/ha: Setaria viridis, 432 h
Method: (§2) A basic panel of 8 weed species (Table 3) were sowed in 4×4×7 cm plastic pots containing inert sand (Sweet sand), intensively washed using osmosis water. Each specie was sowed in a separate pot. In each pot 10-15 seeds were sowed according to the specie viability. Sowing was performed one day before application. The plants were grown for 21 days in a controlled greenhouse (26±2° C. day 20±2° C. night). Hood irrigation (tap water+Shefer 5:3:8 8 mM) was given at a 50% water content by weight. Compounds were soluble in water (DDW), and commercial herbicide control was soluble in formulation B (Table 4). Application was conducted with an industrial sprayer (TeeJet 6502E nozzle) at a rate of 2 kg/ha and spray volume of […]. Pre-emergence advanced dose response experiment application was conducted at six rates between 1-0.0312 kg/ha and spray volume of […]. Percentage of emergence was evaluated at 15 DAA. Visual phenotyping was recorded using a scale of 0-6 (0: no visible effect, 6: maximum effect) at 18 DAA. All experiments included an untreated control, a solvent control and a positive control (commercial herbicide A.I.). Statistical analysis for visual phenotyping determined by a median value of ≥3.5 and Fisher test (pval≤0.05). Statistical analysis for plant emergence determined by % emergence ≥50 and T test (pval≤0.05), as well as Wilcox test (pval≤0.05).

POAAN = assay: In-planta LTP pre-emergence, visual phenotype; format: in vivo, Poa annua; conditions: monocot; for pest or weed control at 2000 g/ha: Poa annua, 432 h, read-out: IG Inhibited growth (% effect)
Method: as §2

AMAPA [4] = assay: In-planta LTP pre-emergence, visual phenotype; format: in vivo, Amaranthus palmeri; conditions: dicot; for pest or weed control at 2000 g/ha: Amaranthus palmeri, 432 h, read-out: IG Inhibited growth (% effect)
Method: as §2

AMAPA [5] = assay: In-planta LTP post-emergence, visual phenotype; format: in vivo, Amaranthus palmeri; conditions: dicot
Method: A basic panel of eight weed species (Table 3) sowed in 4×4×7 cm plastic pots containing a garden mix (klasmann). Each specie was sowed in a separate pot. In each pot, 10-15 seeds were sowed according to the specie viability. Timing of application determined at a 1-2 true leaf stage. The plants grew for 30 days in a controlled greenhouse (26±2° C. day, 20±2° C. night). Hood irrigation (tap water+Shefer 5:3:8 8 mM) was given at a 50% water content by weight. Two days before application, the tested plants thinned down to three plants per pot. Compounds were soluble in water (DDW), and commercial herbicide control was soluble in formulation B (Table 4). Before application, 1% (v/v) crop oil and 0.02% (v/v) surfactant (Tergitol™ 15-5-7) were added to the solution. Application was conducted with an industrial sprayer (TeeJet 6502E nozzle) at a rate of 2 kg/ha and spray volume of […]. Plants were evaluated at 3 time points (4, 8, 12 days after application (DAA)). At each time point, visual phenotyping was recorded using a scale of 0-6 (0: no visible effect, 6: maximum effect). At 12 DAA, plants foliage was harvested, dried and weighed for dry weight analysis.
Post-emergence advanced dose response experiment included 4 species: SETVI, ECHCO, AMAPA, ABUTH (Tables 3, 5). Application was conducted at six rates between 0.6-0.0187 kg/ha and spray volume of […]. Plants were evaluated at 4 time points (6, 12, 18 and 26 DAA). At each time point, visual phenotyping was recorded using a scale of 0-6 (0: no visible effect, 6: maximum effect). At 26 DAA, plants foliage was harvested, dried and weighed for dry weight analysis.
Post-emergence advanced wide panel experiment included 24 weed species (Table 5). Application was conducted at 2 rates of 2 kg/ha and 0.25 kg/ha and spray volume of […]. Visual phenotyping was recorded at 4, 11, 17 and 20 DAA using a scale of 0-6 (0: no visible effect, 6: maximum effect). At 21 DAA, plants foliage was harvested, dried, and weighed for dry weight analysis. All experiments included an untreated control, a solvent control, and a positive control (commercial herbicide A.I.). Statistical analysis for visual phenotyping determined by a median value of ≥3.5 and Fisher test (pval≤0.05). Statistical analysis for dry weight determined by % inhibition ≥50 and T test (pval≤0.05), as well as Wilcox test (pval≤0.05).

ALOMY = assay: In-planta LTP pre-emergence, visual phenotype; format: in vivo, Alopecurus myosuroides; conditions: monocot
Method: as §2

LOLPE = assay: In-planta LTP pre-emergence, visual phenotype; format: in vivo, Lolium perenne; conditions: monocot
Method: as §2

ECHCO = assay: In-planta LTP pre-emergence, visual phenotype; format: in vivo, Echinochloa colona; conditions: monocot
Method: as §2

DIGSA = assay: In-planta LTP pre-emergence, visual phenotype; format: in vivo, Digitaria sanguinalis; conditions: monocot
Method: as §2

SOLNI = assay: In-planta LTP pre-emergence, visual phenotype; format: in vivo, Solanum nigrum; conditions: dicot
Method: as §2

EPPHL = assay: In-planta LTP pre-emergence, visual phenotype; format: in vivo, Euphorbia heterophylla; conditions: dicot
Method: as §2

MATCA = assay: In-planta LTP pre-emergence, visual phenotype; format: in vivo, Matricaria chamomilla; conditions: dicot
Method: as §2

ABUTH = assay: In-planta LTP pre-emergence, visual phenotype; format: in vivo, Abutilon theophrasti; conditions: dicot
Method: as §2

CHEAL = assay: In-planta LTP pre-emergence, visual phenotype; format: in vivo, Chenopodium album; conditions: dicot
Method: as §2

[6] = read-out: DE Disturbed emergence (% effect)
[7] = read-out: IG Inhibited growth (% effect)

Structure (SMILES): CC(CN)Oc1cccc(C(=O)O)c1 (stereo not drawn) [Compound 102]
- in vitro Thermal Shift [1]: 13 °C
- Emax (Arabidopsis thaliana [2]): 92%
- HTPS - Dicot - Post ED50 (Arabidopsis thaliana [2]): 127 g/ha
- HTPS - Dicot - Pre ED50 (Arabidopsis thaliana [3]): 127 g/ha
- Emax (Arabidopsis thaliana [3]): 100%
- HTPS - Monocot - Pre ED50 (Eragrostis teff): 650 g/ha
- Emax (Eragrostis teff): 62%
- pest or weed control at 2000 g/ha (SETVI; [6]): 100%
- pest or weed control at 2000 g/ha (SETVI; [7]): 100%
- pest or weed control at 2000 g/ha (POAAN): 60%
- pest or weed control at 2000 g/ha (AMAPA [4]): 60%

Structure (SMILES): CC(N)COc1ccc(F)c(C(=O)O)c1 (stereo not drawn) [Compound 108]
- in vitro Thermal Shift [1]: 16 °C
- Emax (Arabidopsis thaliana [2]): 100%
- HTPS - Dicot - Post ED50 (Arabidopsis thaliana [2]): 31 g/ha
- HTPS - Dicot - Pre ED50 (Arabidopsis thaliana [3]): 31 g/ha
- Emax (Arabidopsis thaliana [3]): 100%
- HTPS - Monocot - Pre ED50 (Eragrostis teff): 290 g/ha
- Emax (Eragrostis teff): 80%
- pest or weed control at 2000 g/ha (SETVI; [6]): 100%
- pest or weed control at 2000 g/ha (SETVI; [7]): 100%
- pest or weed control at 2000 g/ha (POAAN): 80%
- DE Disturbed emergence (% effect) (POAAN): DE (80) %
- pest or weed control at 2000 g/ha (AMAPA [4]): 60%

Structure (SMILES): CC(N)COc1cc(Cl)cc(C(=O)O)c1 (stereo not drawn) [Compound 109]
- in vitro Thermal Shift [1]: 14 °C
- HTPS - Monocot - Pre ED50 (Eragrostis teff): 681 g/ha
- Emax (Eragrostis teff): 80%
- pest or weed control at 2000 g/ha (SETVI; [6]): 100%
- pest or weed control at 2000 g/ha (POAAN): 100%
- DE Disturbed emergence (% effect) (POAAN): DE (100), %
- pest or weed control at 2000 g/ha (AMAPA [4]): 60%
- BL Bleaching (% effect) (AMAPA [5]): BL (40) %

Structure (SMILES): CC(N)COc1cccc(C(=O)O)n1 (stereo not drawn) [Compound 116]
- in vitro Thermal Shift [1]: 16 °C
- Emax (Arabidopsis thaliana [2]): 100%
- HTPS - Dicot - Post ED50 (Arabidopsis thaliana [2]): 3 g/ha
- HTPS - Dicot - Pre ED50 (Arabidopsis thaliana [3]): 10 g/ha
- Emax (Arabidopsis thaliana [3]): 100%
- HTPS - Monocot - Pre ED50 (Eragrostis teff): 10 g/ha
- Emax (Eragrostis teff): 100%
- pest or weed control at 2000 g/ha (SETVI; [6]): 100%
- IG Inhibited growth (% effect) (ALOMY): IG (100), %
- W Wilting (% effect) (ALOMY): W^5 (100) %
- DE Disturbed emergence (% effect) (LOLPE): DE (100) %
- DE Disturbed emergence (% effect) (POAAN): DE (100) %
- DE Disturbed emergence (% effect) (ECHCO): DE (100) %
- DE Disturbed emergence (% effect) (DIGSA): DE (100) %
- DAB Disturbed apical bud (% effect) (SOLNI): DAB^2 (80) %
- IG Inhibited growth (% effect) (SOLNI): IG (80), %
- BL Bleaching (% effect) (EPPHL): BL (80), %
- DAB Disturbed apical bud (% effect) (EPPHL): DAB (80) %
- IG Inhibited growth (% effect) (EPPHL): IG (60), %
- pest or weed control at 2000 g/ha (AMAPA [4]): 80%
- C Chlorosis (% effect) (AMAPA [4]): C^3 (60), %
- DAB Disturbed apical bud (% effect) (AMAPA [4]): DAB (100) %
- BL Bleaching (% effect) (MATCA): BL^4 (40), %
- DAB Disturbed apical bud (% effect) (MATCA): DAB (60) %
- IG Inhibited growth (% effect) (MATCA): IG (80), %
- BL Bleaching (% effect) (ABUTH): Bl (80), %
- DAB Disturbed apical bud (% effect) (ABUTH): DAB (80) %
- IG Inhibited growth (% effect) (ABUTH): IG (80), %
- DAB Disturbed apical bud (% effect) (CHEAL): DAB (80) %
- IG Inhibited growth (% effect) (CHEAL): IG (80), %

Structure (SMILES): CC(N)COc1cncc(C(=O)O)n1 (stereo not drawn) [Compound 148]
- in vitro Thermal Shift [1]: 12 °C
- Emax (Arabidopsis thaliana [2]): 17%
- Emax (Arabidopsis thaliana [3]): 28%
- Emax (Eragrostis teff): 100%
- pest or weed control at 2000 g/ha (SETVI; [6]): 100%
- pest or weed control at 2000 g/ha (SETVI; [7]): 100%
- DRD Disturbed root development (% effect) (SETVI): DRD^7 (100), %
- DRD Disturbed root development (% effect) (ALOMY): DRD (60) %
- pest or weed control at 2000 g/ha (POAAN): 40%
- DRD Disturbed root development (% effect) (POAAN): DRD (40) %
- DE Disturbed emergence (% effect) (MATCA): DE (40) %
